Experimental data: ChEMBL document CHEMBL1201862, “PubChem BioAssay data set” (2004)
Active and inactive are the calls of the source.

Key:
[1] = SNU-C1 cell viability reduction, dose response, CellTiter-Glo luminescence (AID 1117323); format: functional, cell-based
[2] = HCT116 cell viability decrease, GSK3B pretreatment – CellTiter-Glo, IC50, dose response (AID 1117339); format: functional; conditions: HCT-116
[3] = RKO cell viability reduction, dose response, CellTiter-Glo luminescence (AID 1117322); format: functional
[4] = Reduced DLD-1 viability, concentration-response, CellTiter-Glo luminescence (AID 1117352); format: functional
[5] = rise of 2N DNA cells, HeLa – IC50, dose response (AID 1117349); format: functional, cell-based
[6] = cytotoxicity toward Colo320 cells – cell-based, CellTiter-Glo luminescence, IC50, dose response (AID 1117334); format: functional; conditions: COLO 320
[7] = rise of 4N DNA cells, HeLa – IC50, dose response (AID 1117351); format: functional, cell-based
[8] = cytotoxicity toward HCT116 cells – cell-based, CellTiter-Glo luminescence, IC50, dose response (AID 1117332); format: functional; conditions: HCT-116
[9] = cytotoxicity toward HT-29 cells – cell-based, CellTiter-Glo luminescence, IC50, dose response (AID 1117330); format: functional
[10] = CellTiter-Glo luminescence survival assay, SW480 colon tumor line, concentration-response curve, half-maximal inhibitory concentration (AID 1117338); format: functional
[11] = growth inhibition of PfATP4-mutant resistant parasites – NITD609-resistant line, SYBR Green, dry powder, dose response (AID 1159571); format: functional, cell-based;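 further: parasites synchronized at ring stage by sorbitol before testing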
[12] = toxicity to human HepG2 hepatoma cells – cell-based, plate reader, dry powder samples, cytotoxicity control, dose response (AID 1159569); format: functional;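 further: inhibitor potency with signal falling toward the positive control level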
[13] = Dd2 malaria parasite growth inhibition potency – SYBR Green, dry powder samples, dose response (AID 1159566); format: functional, cell-based;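 further: potency for growth inhibition with lower SYBR green DNA signal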
[14] = P. falciparum Dd2 growth inhibitors, dose response, SYBR Green, cherry-picked samples (AID 1159567); format: functional, cell-based
[15] = growth inhibition of yeast DHODH-expressing 3D7 parasites – SYBR Green, dry powder samples, dose response (AID 1159570); format: functional, cell-based;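 further: parasite growth measured after 72 hours of compound exposure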
[16] = reduced cellular PGC1a acetyl-lysine signal – cell-based, cherry-picked samples, dose response (AID 720514); format: functional;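 further: potency may reflect raised or lowered acetylation signal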
[17] = toxicity to HepG2 liver cells – cell-based, plate reader, dry powder, set 6, cytotoxicity control, dose response (AID 743311); format: functional
[18] = cervical cancer cell viability loss – HeLa, 24 h, plate reader, powder samples, set 3, cytotoxicity control, dose response (AID 651864); format: functional, cell-based
[19] = Luminescence-based cell-based high throughput dose response assay to identify activators of the DAF-12 from the parasite S. stercoralis (ssDAF-12).; format: functional
[20] = target: T1, Protein skinhead-1 (Caenorhabditis elegans, UniProt P34707); format: functional
T1 sequence (P34707 whole entry): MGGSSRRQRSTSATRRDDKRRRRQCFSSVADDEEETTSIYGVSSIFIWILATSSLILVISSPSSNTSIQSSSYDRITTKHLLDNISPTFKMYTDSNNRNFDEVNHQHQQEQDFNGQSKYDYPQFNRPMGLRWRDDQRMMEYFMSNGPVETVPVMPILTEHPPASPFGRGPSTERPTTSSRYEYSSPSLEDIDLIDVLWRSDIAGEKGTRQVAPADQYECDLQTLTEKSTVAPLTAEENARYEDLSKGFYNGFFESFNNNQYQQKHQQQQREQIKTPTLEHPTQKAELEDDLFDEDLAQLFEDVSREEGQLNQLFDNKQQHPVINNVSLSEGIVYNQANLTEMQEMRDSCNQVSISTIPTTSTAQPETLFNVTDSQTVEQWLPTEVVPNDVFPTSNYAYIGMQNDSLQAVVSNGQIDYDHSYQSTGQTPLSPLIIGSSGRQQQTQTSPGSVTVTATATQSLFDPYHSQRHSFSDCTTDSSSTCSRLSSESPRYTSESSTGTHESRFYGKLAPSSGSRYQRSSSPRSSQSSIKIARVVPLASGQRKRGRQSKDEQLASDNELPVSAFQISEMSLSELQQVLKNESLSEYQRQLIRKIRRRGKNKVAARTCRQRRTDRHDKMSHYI

[21] = target: T2, Oxysterols receptor LXR-beta (Homo sapiens, UniProt P55055); assay: LXR agonists, Gal4 luciferase reporter, dose response, counter-screen for ssDAF-12 agonist project, cell-based, luminescence, HEK293, S. stercoralis campaign (AID 720737); format: functional; conditions: read-out: IC50 (the source's name)
T2 sequence (P55055 whole entry): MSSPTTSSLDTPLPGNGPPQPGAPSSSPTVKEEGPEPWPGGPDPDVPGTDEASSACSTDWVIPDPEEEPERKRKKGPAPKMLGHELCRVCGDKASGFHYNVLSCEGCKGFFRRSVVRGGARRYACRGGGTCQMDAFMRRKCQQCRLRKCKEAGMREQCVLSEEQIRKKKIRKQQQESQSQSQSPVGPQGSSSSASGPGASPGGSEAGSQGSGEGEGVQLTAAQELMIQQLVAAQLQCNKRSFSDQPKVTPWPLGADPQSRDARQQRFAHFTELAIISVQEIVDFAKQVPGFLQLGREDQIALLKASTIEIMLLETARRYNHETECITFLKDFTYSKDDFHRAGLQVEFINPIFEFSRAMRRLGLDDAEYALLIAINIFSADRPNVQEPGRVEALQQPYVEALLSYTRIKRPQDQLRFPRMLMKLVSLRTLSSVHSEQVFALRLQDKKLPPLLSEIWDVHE

O=C1C2CC=CCC2C(=O)N1SC(Cl)(Cl)Cl (stereo unspecified) [CAPTAN]
IC50 [1]: 903 nM (active) | IC50 [2]: 2210 nM (active) | IC50 [3]: 402 nM (active) | IC50 [4]: 348 nM (active) | IC50 [5]: > 10000 nM (inactive) | IC50 [6]: 306 nM (active) | IC50 [7]: > 10000 nM (inactive) | IC50 [8]: 1760 nM (active) | IC50 [9]: 500 nM (active) | IC50 [10]: 78.8 nM (active)

O=S(=O)(c1ccc(-c2ccccc2)cc1)N1C[C@@H]2N[C@H](C1)[C@@H]2c1ccc(-c2cccnc2)cc1
AC50 [11]: 1800 nM (active) | AC50 [12]: 19500 nM (active) | AC50 [13]: 772 nM (active) | AC50 [14]: 2140 nM (active) | AC50 [15]: 1290 nM (active) | AC50 [16]: 8200 nM (active)

CC(C)Oc1ccc(OCCn2c(=S)[nH]c3ccccc32)cc1
AC50 [17]: > 52000 nM (inactive)

c1ccc(Cn2nnc(NCc3ccc(N4CCCC4)cc3)n2)cc1
AC50 [18]: > 160000 nM (inactive)

Fc1ccc(-c2csc(Nc3ccccn3)n2)cc1
IC50 [19]: > 67600 nM (inactive) | IC50 [20]: 22800 nM (active) | EC50 [21]: > 67600 nM (inactive)
